Publication PMC12218921, “An adaptive peptide-binding site in ubiquitin receptor hRpn13 revealed by structural studies” (Nature Communications, 2025)
No end group written: not given here.

Tests used:
[1] = target: T1, hRpn13_ΔMTT (Homo sapiens, UniProt Q16186); test: 1H-15N HSQC NMR titration / chemical shift perturbation (CSP), 0.1 mM 15N-labeled hRpn13_ΔMTT with unlabeled peptide; assay type: binding
T1 construct: recombinant plasmid of hRpn13 Pru (1–150) cloned into the pRSET vector; GST (N, cleaved yes); residual Gly-Ser (^cG-^dS) left after cleavage; made in house; host or cells: Escherichia coli BL21 (DE3); pGEX-4T-1 plasmid synthesized by GenScript (Addgene 237412)
Protocol: The similar spectral effects by adding ENT or ENT_M1S is readily apparent by quantifying and plotting the shifting across the Pru amino acid sequence (Supplementary Fig. 10b, c).
(§1) All ^1H-^15N HSQC experiments were acquired on samples dissolved in NMR buffer (20 mM sodium phosphate, pH 6.5, 50 mM NaCl, 1 mM TCEP, 10% D2O) unless specified, in which case 2 mM DTT replaced TCEP. The samples were purified in DTT-containing buffer and then exchanged into NMR buffer by using Zeba Protein Desalting columns (Thermo Fisher Scientific). The pH was measured and adjusted to 6.5. All NMR experiments were performed at 25 °C on a Bruker Advance 600 MHz spectrometer equipped with a cryogenically cooled probe. The data were processed by NMRpipe[46] (version 11.5) and spectra visualized and analyzed with NMR-FAM-SPARKY[47] (version 3.190) by using previous chemical shift assignments[12],[23] and NMRbox[48]. The amide nitrogen and hydrogen chemical shift perturbations (CSP) were mapped for each amino acid according to Eq. 1.1 CSP=0.2ΔδN2+ΔδH2
ΔδH, change in amide proton value (in parts per million); ΔδN, change in amide nitrogen value (in parts per million).
Supplementary Figure 9: 2D NMR experiments indicate ENT binding to hRpn13 Pru. a) ^1H-^15N HSQC spectrum of 0.1 mM ^15N-labeled hRpn13 (1-150, black) or hRpn13_ΔMTT (green). Select residues are labeled with amino acids in the Pru helix, proteasome binding region, and termini in blue, purple, and orange, respectively. Arrows indicate direction of shifting. b, c) ^1H-^15N HSQC spectra of 0.1 mM of ^15N-labeled hRpn13_ΔMTT alone (black) or with ENT present at equimolar (red), 2-fold (orange), 5-fold (yellow), 10-fold (green), 15-fold (blue), or 20-fold (purple) molar excess. […] All spectra were acquired at 600 MHz and 25°C in 20 mM sodium phosphate, pH 6.5, 100 mM NaCl, 1 mM TCEP, 10% D2O. ppm, part per million.

[2] = target: T1, hRpn13_ΔMTT; test: Competition assay by fluorescence polarization (unlabeled peptide vs TAMRA-hRpn2 (940–953)); assay type: binding
[3] = test system: hRpn13 Pru; test: 1H-15N HSQC NMR, DTT versus TCEP in buffer; assay type: binding, human; settings: 1 mM DTT or TCEP, 15N-hRpn13 Pru, 25 °C, 850 MHz
Excerpt: Although DTT is trapped bound to C88 in the crystal, we expected that its interaction with hRpn13 in solution is likely to be transient and dynamic. Nonetheless, we tested whether NMR spectroscopy could detect differences between hRpn13 Pru dissolved in buffer containing DTT versus TCEP. We used previously obtained NMR resonance assignments[13] and 2D ^1H-^15N HSQC experiments to detect the hRpn13 amide signals, which are sensitive to changes in their chemical environment, for ^15N-labeled hRpn13 Pru with either 1 mM DTT or TCEP present in the buffer. […] C60 and C80 by contrast show no spectral perturbations (Supplementary Fig. 8a).
as §1, with “All NMR experiments were performed at 25 °C on a Bruker Advance 600 MHz spectrometer equipped with a cryogenically cooled probe.” left out, “CSP=0.2ΔδN2+ΔδH2 […]” for “CSP=0.2ΔδN2+ΔδH2”

[4] = test system: hRpn13 F76 arginine substitution; settings: cited from earlier work

T1 sequence (Q16186 4-150, stated change not applied): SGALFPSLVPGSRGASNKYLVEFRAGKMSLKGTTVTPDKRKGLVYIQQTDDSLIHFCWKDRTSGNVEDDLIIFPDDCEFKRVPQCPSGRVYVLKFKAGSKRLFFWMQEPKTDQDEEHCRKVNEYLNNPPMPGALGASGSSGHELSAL

## GPGSMTT [ENT]
[1]; 100 μM 15N-hRpn13_ΔMTT, peptide up to 20-fold molar excess, pH 6.5, 25 °C, 600 MHz
  HSQC signal shifting of hRpn13_ΔMTT: small concentration-dependent shifting of the same (T114, D117-E119, C121) and additional (W61, M109, H120, H145) hRpn13 amide signals
[1]; 100 μM 15N-hRpn13_ΔMTT, varying molar ratios
  strength of binding to hRpn13 Pru (by HSQC): weak interaction between ENT and hRpn13 Pru
[1]; 20-fold molar excess peptide
  CSP A6: 0.001342
  CSP A28: 0.00743
  CSP A100: 0.002049
  CSP A136: 0.002049
  CSP A139: 0.0004472
  CSP A149: 0.003493
  CSP C60: 0.003715
  CSP C80: 0.002049
  CSP C88: 0.002449
  CSP C121: 0.02471
  CSP D41: 0
  CSP D53: 0.002049
  CSP D54: 0.001789
  CSP D63: 0.004494
  CSP D71: 0.007
  CSP D72: 0.007759
  CSP D78: 0.005899
  CSP D79: 0.002864
  CSP D115: 0.009859
  CSP D117: 0.033
  CSP E25: 0.009859
  CSP E70: 0.005459
  CSP E81: 0.001342
  CSP E111: 0.01601
  CSP E118: 0.06429
  CSP E119: 0.03311
  CSP E146: 0.01203
  CSP F8: 0.002049
  CSP F26: 0.0264
  CSP F59: 0.002864
  CSP F76: 0.007603
  CSP F82: 0.004219
  CSP F98: 0.009391
  CSP F106: 0.002864
  CSP F107: 0.001789
  CSP G5: 0
  CSP G17: 0.002683
  CSP G29: 0.003286
  CSP G45: 0.006148
  CSP G67: 0.001342
  CSP G91: 0.002049
  CSP G101: 0.004669
  CSP G135: 0.002449
  CSP G138: 0.001095
  CSP G141: 0.002049
  CSP G144: 0.001342
  CSP H58: 0.007057
  CSP H120: 0.07737
  CSP H145: 0.06834
  CSP I49: 0.002408
  CSP I57: 0.004025
  CSP I75: 0.001673
  CSP K21: 0.0004472
  CSP K30: 0.01021
  CSP K34: 0.002408
  CSP K42: 0.00502
  CSP K62: 0.001342
  CSP K83: 0.005367
  CSP K97: 0.002449
  CSP K99: 0.001095
  CSP K103: 0.003131
  CSP K113: 0.008729
  CSP K123: 0.01565
  CSP L7: 0.002408
  CSP L11: 0.001342
  CSP L23: 0.004382
  CSP L33: 0.002
  CSP L46: 0.004899
  CSP L56: 0.002236
  CSP L73: 0.003493
  CSP L96: 0.001095
  CSP L105: 0.006017
  CSP L128: 0.003
  CSP L137: 0.002449
  CSP L147: 0.01114
  CSP L150: 0.003493
  CSP M31: 0.003131
  CSP M109: 0.01978
  CSP M133: 0.001095
  CSP N20: 0.002049
  CSP N68: 0.001095
  CSP N125: 0.002049
  CSP N129: 0.004025
  CSP N130: 0.001673
  CSP Q50: 0.003742
  CSP Q51: 0.004025
  CSP Q87: 0.003742
  CSP R16: 0.001095
  CSP R27: 0.001095
  CSP R43: 0.002191
  CSP R64: 0.004025
  CSP R92 backbone: 0.003131
  CSP R92 sidechain: 0.016
  CSP R104: 0.008112
  CSP R122: 0.01435
  CSP S4: 0.009602
  CSP S10: 0.001342
  CSP S15: 0.001342
  CSP S19: 0.001342
  CSP S32: 0.001342
  CSP S55: 0.002864
  CSP S66: 0.004472
  CSP S102: 0.002049
  CSP S140: 0.001342
  CSP S142: 0.002049
  CSP S143: 0.002236
  CSP S148: 0.003286
  CSP T36: 0.00882
  CSP T37: 0.003578
  CSP T39: 0.001342
  CSP T52: 0
  CSP T65: 0.001342
  CSP T114: 0.02379
  CSP V12: 0.002049
  CSP V24: 0.003715
  CSP V47: 0.008497
  CSP V69: 0.004494
  CSP V93: 0.004494
  CSP V95: 0.002683
  CSP V124: 0.0139
  CSP W61: 0.0278
  CSP W108: 0.005899
  CSP Y22: 0.01048
  CSP Y48: 0.003715
  CSP Y94: 0.00502
  CSP Y127: 0.00531
[1]; e.g. F76 and D78 amide signals
  effect at Pru-B-binding surface (HSQC): No effects were observed at the Pru-B-binding surface
[2]; 80 nM hRpn13_ΔMTT, 10 nM TAMRA-hRpn2 (940–953), N = 6
  concentration required to completely decrease the FP to background levels: > 3 mM
[2]; FP competition
  concentrations at which peptides can displace hRpn2 from hRpn13: > 0.5 mM
[2]; peer review file, FP competition with TAMRA-hRpn2 (940-953), read-out: IC50 (FP decreased to background levels)
  IC50: > 3 mM

## O[C@@H](CS)[C@@H](O)CS (racemic) [DTT, dithiothreitol]
[3]
  HSQC signal shifting, DTT versus TCEP: slight signal shifting, including for C88

## ubiquitin
[4]
  hRpn13 binding to ubiquitin on arginine substitution of F76: abolishes hRpn13 binding to ubiquitin
